Several values for one entry are separate records, joined by “and”; a condition that tells them apart may be missing. Equal values may be shown once. Read-outs that look alike come from different tables or passages of the source.
Tests used:
SM38 = assay: Enzyme assays and kinetics with purified recombinant soluble SM38; type: biochemical, Schistosoma mansoni; settings: for Km / Vmax (specific activity) / kcat: 37° C., 10 mM potassium phosphate buffer pH 7.4, SM38 from Pichia pastoris
Procedure: The enzyme was incubated with NAD^+ (200 μM) in buffer A (1 ml final volume) until the reaction reached 50% completion. The enzyme was eliminated by centrifugation for 10 min at 5000×g on ultrafiltration units (Vivaspin 2, Vivascience). […] The cycling reaction was then allowed to proceed in the same buffer in the presence of 0.8% ethanol, 10 mM nicotinamide, 40 μg/ml BSA, 20 μg/ml diaphorase (treated with charcoal), 20 μg/ml alcohol dehydrogenase, 10 μM FMN and 20 μM resazurin. The increase in resorufin fluorescence (excitation at 544 nm and emission at 590 nm) was measured every minute for 2 h using a fluorescence plate reader (FluoStar from BMG Labtechnologies Inc).
Aliquots were removed at different time points, treated as described above and analyzed by HPLC on a C18 column.
(§1) The transglycosidation of NADP^+ was measured by incubating recombinant soluble SM38 with 1 mM NADP^+ and 20 to 40 mM nicotinic acid at 37° C. for 20 min in a 10 mM potassium phosphate buffer, pH 6.0 or 7.4 (final volume 500 μl). The reaction mixture was analyzed by HPLC on an ion-exchange column (see below). HPLC analysis of the reaction products were performed on aliquots on a C18 column (see below).
The assays were conducted at 37° C. in buffer A in the presence of soluble recombinant enzyme using eight different substrate concentrations. […] Kinetic parameters were determined from the plots of the initial rates as a function of substrate concentration, according to Michaelis-Menten kinetics, using a non-linear regression program (GraphPad, Prism).

bone marrow neutrophils [1] = assay: In vitro transwell chemotaxis assay; type: cell-based, mouse; settings: for ability of neutrophils to chemotax to IL-8: WT neutrophils pre-treated with agent, IL-8 in bottom chamber
Procedure: Bone marrow neutrophils were purified (95% purity) by positive selection using biotinylated GR-1 (PharMingen) and MACS Streptavidin Microbeads (Miltenyi Biotec, Auburn Calif.). Chemotaxis assays (Falk et al., 1980 J. Immuno. Methods 33:239-247) were performed using 24-well transwell plates with a 3 μm pore size polycarbonate filter (Costar, Cambridge, Mass.). Medium (HBSS+Ca2^++Mg2^+), fMLP (1 μM, Sigma, St. Louis, Mo.), or IL-8 (100 nM, Sigma) was placed in the lower and/or upper chamber in a checkerboard format. 1×10^5 neutrophils were loaded in the upper chamber and the plates were incubated at 37° C. for 45 min. The transmigrated cells were collected from the lower chamber, fixed and counted on the flow cytometer (FACS Calibur, Becton Dickinson, San Jose Calif.). To determine the absolute number of cells in each sample, a standard number of […] size fluorescent microspheres (Polysciences, Inc. Warrington, Pa.) was added to each tube and counted along with the cells. The total number of transmigrated cells=the number of counted neutrophils×total number of beads/beads counted. […]

bone marrow neutrophils [2] = assay: Intracellular calcium measurements by flow cytometry (Fluo-3/Fura Red); type: cell-based, mouse
Procedure: Purified bone marrow neutrophils were resuspended in cell loading media (HBSS with Ca2^+ and Mg2^++1% FBS+4 mM probenecid) at 1×10^7 cells/ml. The cells were incubated at 37° C. for 30 min with the fluorescent dyes Fluo-3 AM (4 μg/ml) and Fura Red AM (10 μg/ml) (Molecular Probes, Eugene Oreg.) and then washed twice and resuspended in cell loading medium or calcium-free medium at 1×10^6 cells/ml. In some experiments, cells were permeabilized in 5 μM digitonin in calcium-free media. […] The accumulation of [Ca^2+]i in individual cells was assessed by flow cytometry measuring the fluorescence emission of Fluo-3 in the FL-1 channel and Fura-Red in the FL-3 channel. Data was analyzed using FlowJo 3.2 (Tree Star, Inc. San Carlos, Calif.). The relative [Ca2^+]i was expressed as the ratio between Fluo-3 and Fura Red mean fluorescence intensity over time.

Mammalian cyclases = settings: cited from earlier work
Aplysia cyclase = Aplysia cyclase (Aplysia californica, UniProt P29241); settings: cited from earlier work
Aplysia cyclase, sequence (P29241 25-282): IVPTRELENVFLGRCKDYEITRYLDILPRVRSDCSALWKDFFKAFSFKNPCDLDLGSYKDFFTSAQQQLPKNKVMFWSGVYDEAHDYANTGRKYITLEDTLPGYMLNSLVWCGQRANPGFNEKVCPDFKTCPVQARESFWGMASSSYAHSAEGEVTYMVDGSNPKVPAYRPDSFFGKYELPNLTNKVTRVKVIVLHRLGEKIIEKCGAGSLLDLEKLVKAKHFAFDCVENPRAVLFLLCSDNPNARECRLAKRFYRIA

[3] = test system: membrane-associated NAD^+ glycohydrolase/NGD^+ cyclase expressed by adult S. mansoni worms; assay: NAD+ glycohydrolase / NGD+ cyclase activity of adult worm membrane microsomes
Procedure: The enzyme was suspended in 10 mM potassium phosphate buffer, pH 7.4 (buffer A) and incubated at 37° C. with substrate (200 μl final volume). At selected times, aliquots (50 μl) were removed and enzyme activity was stopped by adding ice-cold perchloric acid (2% final concentration). After neutralization with 3.5 M K2CO3, precipitated proteins were removed by centrifugation. Product formation was then monitored by HPLC as described below. […] Product formation was then monitored by HPLC on a C18 column as described below.
Product analysis was performed by HPLC on 300×3.9 mm μBondapack C18 column (Waters Assoc., Milford Mass.). […] The elution was performed at a flow rate of 1 ml/min with a non-linear gradient starting with 100% solvent A (water). […] Peaks were identified by comparison with authentic samples and areas obtained from UV recordings were normalized using the molar extinction coefficients of the reaction products.
To prepare membrane fractions from adult S. mansoni worms, 2 g of worms were disrupted at 4° C. with a potter in 10 mM potassium phosphate buffer (pH 7.4) containing 1 mM EDTA and 0.1 mM phenylmethylsulfonyl fluoride (PMSF) as protease inhibitors. The homogenate was centrifuged at 10,000×g for 15 min and the post-mitochondrial supernatant was centrifuged at 100,000×g for 60 min to obtain the membrane microsomal fraction. […]

[4] = other cyclase family members; cited from earlier work
[5] = Transglycosidation (pyridine base exchange) by cyclase family enzymes; type: biochemical; settings: SM38
Procedure: as §1

Molecule: Nc1ncnc2c1ncn2[C@@H]1O[C@H](COP(=O)(O)OP(=O)(O)OCC2OC([n+]3cccc(C(=O)[O-])c3)C(O)C2O)[C@@H](O)[C@H]1OP(=O)(O)O (stereo in doubt) [NAADP^+, nicotinic acid adenine dinucleotide phosphate]
- reduction in NAADP+ formation at pH 7.4 compared to pH 6.0 (SM38; transglycosidation of NADP+ with nicotinic acid): 3 fold

Molecule: N=c1c2nc(Br)n3c2ncn1C1OC(COP(=O)(O)OP(=O)(O)OCC2OC3C(O)C2O)C(O)C1O (stereo not drawn) [8-Br-cADPR]
- ability of neutrophils to chemotax to IL-8 (bone marrow neutrophils [1]): absolutely no effect
- release of intracellular calcium and influx of extracellular calcium (bone marrow neutrophils [2]; WT cells preincubated with increasing concentrations, stimulated with fMLP): reduced in a dose-dependent fashion
- [Ca2+]i of IL-8 stimulated neutrophils (bone marrow neutrophils [2]; WT or CD38KO neutrophils, IL-8): absolutely no effect
- cADPR-induced intracellular calcium release after pre-treatment (bone marrow neutrophils [2]; permeabilized neutrophils, calcium-free buffer, stimulated with cADPR): No calcium release
- block of accumulation of intracellular free calcium mediated by thapsigargin (bone marrow neutrophils [2]; thapsigargin-stimulated neutrophils): unable to block

Molecule: O=C(O)CN(CCOCCOCCN(CC(=O)O)CC(=O)O)CC(=O)O [EGTA]
- ability of neutrophils to chemotax to IL-8 (bone marrow neutrophils [1]): absolutely no effect

Molecule: NNC(=O)c1ccncc1 [INH, isoniazid]
- Sensivity to INH (SM38; SM38): INH-insensitive and no
- Sensivity to INH (Mammalian cyclases): yes/no

Molecule: NC(=O)c1ccc[n+]([C@@H]2O[C@H](COP(=O)([O-])OP(=O)(O)OC[C@H]3O[C@@H](n4c(Br)nc5c(N)ncnc54)[C@H](O)[C@@H]3O)[C@@H](O)[C@H]2O)c1 [N(8-Br-A)D^+, nicotinamide 8-bromoadenine dinucleotide]
- chemotaxis of CD38KO neutrophils to either fMLP or IL-8 (bone marrow neutrophils [1]; CD38KO neutrophils pre-treated): no effect
- ability of neutrophils to chemotax to IL-8 (bone marrow neutrophils [1]): no effect
- neutrophil chemotaxis to fMLP (bone marrow neutrophils [1]; WT neutrophils pre-treated, fMLP in bottom chamber): severely reduced
- entry of extracellular calcium in fMLP-treated neutrophils (bone marrow neutrophils [2]; WT neutrophils pretreated): inhibited

Molecule: NC(=O)c1ccc[n+]([C@@H]2O[C@H](COP(=O)([O-])OP(=O)(O)OC[C@H]3O[C@@H](n4cnc5c(N)ncnc54)[C@H](OP(=O)(O)O)[C@@H]3O)[C@@H](O)[C@H]2O)c1 [NADP^+]
- Km (SM38): 13.7 ± 2.9 µM
- Vmax (specific activity) (SM38): 39.2 ± 1.6 µmol/min/mg
- kcat (SM38): 19.34 ± 0.79 s⁻¹
- catalytic efficiency (kcat/Km) relative to NAD+ (SM38; NADP+ versus NAD+): 8 fold

Molecule: NC(=O)c1ccc[n+]([C@@H]2O[C@H](COP(=O)([O-])OP(=O)(O)OC[C@H]3O[C@@H](n4cnc5c(N)ncnc54)[C@H](O)[C@@H]3O)[C@@H](O)[C@H]2O)c1 [NAD^+]
- Km (SM38): 38.5 ± 6.8 µM
- Vmax (specific activity) (SM38): 13.2 µmol/min/mg and 13.2 ± 2.6 µmol/min/mg
- kcat (SM38): 6.51 ± 1.28 s⁻¹
- Hydrolysis of NAD^+ (SM38; SM38): yes
- Methanolysis of NAD^+ (SM38; SM38): yes
- Hydrolysis of NAD^+ (Mammalian cyclases): yes
- Methanolysis of NAD^+ (Mammalian cyclases): yes
- Hydrolysis of NAD^+ (Aplysia cyclase): very low
- Methanolysis of NAD^+ (Aplysia cyclase): very low
- specific activity of non-treated membrane microsomes ([3]; 14C-labeled NAD+, ADPR production by HPLC): 36 nmol/min/mg protein

Molecule: NC(=O)c1ccc[n+]([C@@H]2O[C@H](COP(=O)([O-])OP(=O)(O)OC[C@H]3O[C@@H](n4cnc5c(=O)[nH]c(N)nc54)[C@H](O)[C@@H]3O)[C@@H](O)[C@H]2O)c1 [NGD^+, nicotinamide guanine dinucleotide]
- Km (SM38): 23.4 µM
- Vmax (specific activity) (SM38): 4.8 µmol/min/mg and 4.8 ± 0.1 µmol/min/mg
- kcat (SM38): 2.37 ± 0.05 s⁻¹
- cyclization/hydrolysis ratio (SM38; NGD+ as substrate, cGDPR vs GDPR): approximately 6.0
- cGDPR/GDPR ratio ([3]; membrane microsomes incubated with NGD+): 12

Molecule: NC(=O)c1ccc[n+]([C@@H]2O[C@H](COP(=O)([O-])OP(=O)(O)OC[C@H]3O[C@@H](n4cnc5c(N)ncnc54)[C@H](O)[C@@H]3O)[C@@H](O)[C@H]2F)c1 [araF-NAD^+]
- IC50 (SM38; SM38, read-out: Inhibition by araF-NAD^+ (IC50)): > 10 µM
- Inhibition by araF-NAD^+ (Ki) (Mammalian cyclases): Ki nM range
- IC50 (Aplysia cyclase; read-out: Inhibition by araF-NAD^+ (IC50)): > 10 µM

Molecule: N.N.N.N.N.N.N.N.N.N.N.N.N.N.[Cl-].[Cl-].[Cl-].[Cl-].[Cl-].[Cl-].[O-2].[O-2].[Ru+3].[Ru+3].[Ru+4] [ruthenium red]
- block of ryanodine-induced increase in [Ca2+] (bone marrow neutrophils [2]; permeabilized neutrophils, calcium-free buffer): blocked

Molecule: cyclic GDP-ribose [cGDPR]
- Formation of cGDPR (SM38; SM38): yes
- Formation of cGDPR (Mammalian cyclases): yes
- Formation of cGDPR (Aplysia cyclase): yes

Molecule: ryanodine
- [Ca2+]i after stimulation (bone marrow neutrophils [2]; neutrophils permeabilized in calcium-free buffer): small, but reproducible, increase

B1: Aplysia cyclase: invertebrate Aplysia ADP-ribosyl cyclase enzyme (protein)
chain: MSPVAIVACVCLAVTLTRISPSEAIFPTPELQNVFLGRCKDYEITRYLTILPRVKSDCRALWTNFFKAFSFKAPCNLDLGSYKDFFQRAQQTLPKNKVMFWSGVYDEAHDFADDGRKYITLEDTLPGYMLNSLVWCGQRDKPGFNQKVCPDFKDCPVQARESFWGTASSSYAHSAEGDVTYMVDGSNPKVPAYRPDSFFGKYELPNLTNKVTKVKVIVLHQLGQKIIERCGAGSLLDLEMVVKAKKFGFDCVENPKSVLFLLCADNPNARECQLAKRYYRIA
modifications: A. californica
notes: invertebrate Aplysia ADP-ribosyl cyclase enzyme
- Transglycosidation [4]: yes

B2: SM38: CD38 homologue from the parasitic flatworm Schistosoma mansoni (protein)
chain: RHEVIFHNLLIQIMMNVILFLTLSNIFVFNSAQHQINLLSEIVQSRCTQWKVEHGATNISCSEIWNSFESILLSTHTKSACVMKSGLFDDFVYQLFELEQQQQQRHHTIQTEQYFHSQVMNIIRGMCKRLGVCRSLETTFPGYLFDELNWCNGSLTGNTKYGTVCGCDYKSNVVHAFWQSASAEYARRASGNIFVVLNGSVKAPFNENKTFGKIELPLLKHPRVQQLTVKLVHSLEDVNNRQTCESWSLQELANKLNSVHIPFRCIDDPLEFRHYQCIENPGKQLCQFSASTRSNVETLLILFPLVICLTFYTSMN
- Transglycosidation [5]: yes

Reference: patent US7695933B2, “SM38 nucleic acid molecules” (priority 2000, dated 2010)
